# Assay results published in patent US9758492B2, “IDO inhibitors” (Bristol-Myers Squibb Company, priority 2013, dated 2017).
# Legend:
# IDO [1] = target: T1, IDO (Homo sapiens, UniProt P14902); assay: LLE_IDO_ABS_DR (IDO assay)
# IDO [2] = target: T1, IDO; assay: Kynurenine assay in Hela cells stimulated with IFN-γ to express IDO; assay type: cell-based; design: endogenous in cells; host or cells: HeLa (ATCC CCL-2), stimulated with human recombinant IFN-gamma; settings: 20 h, read-out: Hela Kyurenine (IC50)
# Method: IFNg (R&D, 28-IF-100)—resuspend at 10 ug/mL in PBS with 0.1% BSA 30% TCA
# Ehrlich reagent (2% w/v p-dimethylaminobenzaldehyde in glacial acetic acid)
# Cell Titer 96 Aqueous Non-Radioactive Cell Proliferation Assay, MTS (Promega, Cat # G5430)
# Cell Lines and Culture Conditions
# Hela cancer cell lines were acquired from the American Type Culture Collection. Cells were maintained in phenol red free-RPMI1640 medium containing high glucose and L-glutamine (Invitrogen) supplemented with 10% fetal bovine serum (FBS; Invitrogen). Cell cultures were incubated at 37° C., 5% CO2, and 100% humidity.
# Cell Treatment and Kynurenine Assay
# Hela cells were seeded on 96-well plates (40,000 cells per well) and allowed to adhere for 5-6 hours. Cells were then treated with vehicle (DMSO) or with IDO inhibitor at a top dose of 30 μM (3-fold dilution all the way down to 1.5 nM). A final concentration of 100 ng/mL of human recombinant IFN-γ (R&D, 28-IF-100) was immediately added to the cells to stimulate IDO expression. Treated cells were then incubated for 20 hours at 37° C. At the end of the 20 h incubation, reactions were terminated by the addition of 30% TCA to each well. Plates were incubated for 30 minutes at 50° C. to hydrolyze N-formylkynurenine to kynurenine. Cells were centrifuged 10 minutes at 2400 rpm. 100 ul of supernatants were transferred to new 96 flat well plates and mixed with 100 ul Ehrlich reagent. The resulting solution was incubated 10 minutes at RT. Absorbance at 490 nm was read using Spectra Max 384 (Molecular Devices).
# Human IDO1 = target: T2, Human IDO1 (Homo sapiens, UniProt P14902); assay: IDO Kynurenine Assay with Human IDO1/HEK293 Cells; assay type: cell-based; settings: read-out: HEK human IDO-1 (IC50)
# T2 construct: expressed in transfected cells; host or cells: HEK293
# Outline: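 HEK293 cells stably expressing human IDO1, in phenol red-free RPMI/10% FBS, exposed to compound for 20 h at 37 °C. Stopped with 0.2% TCA (50 °C, 30 min); kynurenine in supernatant detected with Ehrlich reagent, absorbance 490 nm.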
# T1 sequence (P14902 whole entry): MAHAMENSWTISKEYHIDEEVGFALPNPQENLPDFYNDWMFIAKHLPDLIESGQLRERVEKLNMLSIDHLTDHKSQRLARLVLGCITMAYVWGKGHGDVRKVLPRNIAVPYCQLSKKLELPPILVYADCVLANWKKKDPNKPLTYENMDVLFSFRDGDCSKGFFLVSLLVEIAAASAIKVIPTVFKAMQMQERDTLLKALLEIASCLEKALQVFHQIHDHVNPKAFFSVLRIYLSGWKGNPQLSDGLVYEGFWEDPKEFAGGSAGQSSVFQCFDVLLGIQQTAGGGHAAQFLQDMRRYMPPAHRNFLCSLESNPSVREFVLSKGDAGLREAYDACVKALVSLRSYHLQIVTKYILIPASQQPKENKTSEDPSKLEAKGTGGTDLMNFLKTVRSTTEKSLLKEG
# T2 sequence (P14902 whole entry): as above
IC50 (IDO [1]) [nM],IC50 (IDO [2]) [nM],IC50 (Human IDO1) [nM],Compound
3.45,1.37,3.31,"Cc1ccc(NC(=O)Nc2cc(-c3ccccc3-c3nnn[nH]3)ccc2N(CC(C)C)CC(C)C)cc1 [Example 1, 1-(4-(Diisobutylamino)-2′-(1H-tetrazol-5-yl)biphenyl-3-yl)-3-p-tolylurea]"
500,850,–,"Cc1ccc(NC(=O)Nc2cc(-c3ccccc3C(=O)O)ccc2NC2CCCCC2)cc1 [Example 48, 4′-(cyclohexyl-amino)-3′-(3-p-tolylureido)biphenyl-2-carboxylic acid]"
7.93,1.72,–,"Cc1ccc(NC(=O)Nc2cc(-c3ccccc3-c3nnn[nH]3)ccc2N(C)C2CCCCC2)cc1 [Example 44, 1-(4-(cyclohexyl (methyl)amino)-2′-(1H-tetrazol-5-yl)biphenyl-3-yl)-3-p-tolylurea]"
300,80,–,"COC(CN(C)c1ccc(-c2ccccc2C(=O)O)cc1NC(=O)Nc1ccc(C)cc1)OC [Example 54, 4′-((2,2-dimethoxyethyl) (methyl)amino)-3′-(3-p-tolylureido) biphenyl-2-carboxylic acid]"
90,20,–,"CN(c1ccc(-c2ccccc2-c2nnn[nH]2)cc1NC(=O)Nc1ccc(C(F)(F)F)cc1)C1CCCCC1 [Example 2, 1-(4-(Cyclohexyl(methyl)amino)-2′-(1H-tetrazol-5-yl)biphenyl-3-yl)-3-(4-(trifluoromethyl)phenyl)urea]"
40,10,–,"Cc1ccc(NC(=O)Nc2cc(-c3ccccc3-c3nnn[nH]3)ccc2N2CCC[C@@H]3CCCC[C@@H]32)cc1 [Example 47, 1-(4-((4aS,8aS)-octahydroquinolin-1(2H)-yl)-2′-(1H-tetrazol-5-yl)biphenyl-3-yl)-3-p-tolylurea]"
80,10,–,"CN(c1ccc(-c2ccccc2C(=O)O)cc1NC(=O)Nc1ccccc1F)C1CCCCC1 [Example 219, 4′-(cyclohexyl(methyl)amino)-3′-(3-(2-fluorophenyl)ureido) biphenyl-2-carboxylic acid]"
3590,3120,–,"COCCN(CCOC)c1ccc(-c2ccccc2C(=O)O)cc1NC(=O)Nc1ccc(C)cc1 [Example 56, 4′-(bis(2-methoxyethyl)amino)-3′-(3-p-tolylureido)biphenyl-2-carboxylic acid]"
0.835,0.831,–,"CCN(c1ccc(-c2ccccc2-c2nnn[nH]2)cc1NC(=O)Nc1ccc(C)cc1)C1CCCCC1 [Example 216, 1-(4-(cyclohexyl(ethyl)amino)-2′-(1H-tetrazol-5-yl)biphenyl-3-yl)-3-p-tolylurea]"
100,60,–,"CCCN(CC1CC1)c1ccc(-c2ccccc2C(=O)O)cc1NC(=O)Nc1ccc(C)cc1 [Example 58, 4′-((cyclopropylmethyl) (propyl)amino)-3′-(3-p-tolylureido) biphenyl-2-carboxylic acid]"
490,90,–,"CN(c1ccc(-c2ccccc2C(=O)O)cc1NC(=O)Nc1ccccc1)C1CCCCC1 [Example 218, 4′-(cyclohexyl(methyl)amino)-3′-(3-phenylureido)biphenyl-2-carboxylic acid]"
60,10,–,"Cc1ccc(NC(=O)Nc2cc(-c3ccccc3-c3nnn[nH]3)ccc2N(C)C2CCCC2)cc1 [Example 3, 1-(4-(Cyclopentyl(methyl)amino)-2′-(1H-tetrazol-5-yl)biphenyl-3-yl)-3-p-tolylurea]"
1280,120,–,"CN(c1ccc(-c2ccccc2C(=O)O)cc1NC(=O)Nc1ccccc1Cl)C1CCCCC1 [Example 215, 3′-(3-(2-chlorophenyl)ureido)-4′-(cyclohexyl(methyl)amino) biphenyl-2-carboxylic acid]"
490,110,–,"Cc1cccc(NC(=O)Nc2cc(-c3ccccc3-c3nnn[nH]3)ccc2N(C)C2CCCCC2)c1 [Example 211, 1-(4-(cyclohexyl(methyl)amino)-2′-(1H-tetrazol-5-yl)biphenyl-3-yl)-3-m-tolylurea]"
